What all share (type): cell-based
Test [1] has as its target T1, adenosine A3 receptor (A3R) (Homo sapiens, UniProt P0DMS8).
T1 construct: expressed in transfected cells; host or cells: CHO-K1
T1 sequence (P0DMS8 1-318): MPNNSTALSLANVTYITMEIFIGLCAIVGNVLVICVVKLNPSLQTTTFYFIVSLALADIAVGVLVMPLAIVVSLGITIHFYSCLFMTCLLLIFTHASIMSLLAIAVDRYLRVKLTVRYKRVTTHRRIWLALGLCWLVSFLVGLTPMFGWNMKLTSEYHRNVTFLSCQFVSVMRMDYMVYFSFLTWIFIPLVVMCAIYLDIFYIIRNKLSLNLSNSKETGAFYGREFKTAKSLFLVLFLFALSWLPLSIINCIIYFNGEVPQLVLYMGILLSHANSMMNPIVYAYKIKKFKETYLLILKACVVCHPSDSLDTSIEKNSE
The test is described as follows: Inhibition of adenosine A3 receptor cAMP signaling pathway in CHO-K1/A3R cells (HTRF cAMP dynamic 2 kit). To be noted: Table 3; for IC50: CHO-K1/A3R cells, cAMP, 10 μM forskolin, 5 nM 2Cl-IB-MECA; for IC50 ratio (A3R/A2aR): selectivity A3R over A2aR. The source says:
(§1) Test Example 1. Determination of the inhibitory activities of the compounds of the present disclosure on the adenosine A2a receptor (A2aR) cAMP signaling pathway, the adenosine A1 receptor (A1R) cAMP signaling pathway and the adenosine A3 receptor (A3R) cAMP signaling pathway.
(§2) The inhibitory activities of the compounds of the present disclosure on the adenosine A2a receptor (A2aR) cAMP signaling pathway, the adenosine A1 receptor cAMP signaling pathway and the adenosine A3 receptor cAMP signaling pathway were determined by the following methods. The experimental method is briefly described as follows:
CHO-K1/A3R cells were cultured in DMEMIF12 medium containing 10% fetal bovine serum and 10 μg/mL puromycin. The cells were digested with the cell dissociation buffer during the experiment. The cells were resuspended in the HBSS buffer containing 20 mM HEPES and 0.1% bovine serum albumin and counted, and the cell density was adjusted to 5×10^5 cells/mL. In 384-well plates, each well was added with 12.5 μL of the cell suspension, and 6.25 μL of the test compounds (4× concentration) formulated with the HBSS buffer containing 20 mM HEPES, 0.1% bovine serum albumin, 54 μM rolipram and 2.7 U/mL adenosine deaminase, and the plates were incubated at room temperature for 30 minutes. Each well was then added with 6.25 μL of forskolin and 2Cl-IB-MECA (4× concentration) formulated with the HBSS buffer containing 20 mM HEPES, 0.1% bovine serum albumin, […] rolipram and 2.7 U/mL adenosine deaminase, and the plates were incubated at room temperature for 30 minutes. The final concentrations of the compounds were: 100000, 10000, 1000, 100, 10, 1, 0.1 and 0 nM. The final concentration of forskolin was 10 μM. The final concentration of 2Cl-IB-MECA was 5 nM. Intracellular cAMP concentration was determined with cAMP dynamic 2 kits. cAMP-d2 and Anti-cAMP—Eu-Cryptate were diluted respectively with the cAMP lysis buffer at a ratio of 1:4. Each well was added with 12.5 μL of the diluted cAMP-d2, followed by addition of 12.5 μL of the diluted Anti-cAMP—Eu-Cryptate, and the plates were incubated at room temperature in the dark for 1 hour. The HTRF signal values were read by the PHERAstar multi-function microplate reader. IC50 values for the inhibitory activities of the compounds were calculated by Graphpad Prism software, and are shown in Table 3.
Background: In TR-FRET formats the signal depends on donor and acceptor labels being close together.

Test [2] deals with T2, adenosine A2a receptor (A2aR) (Homo sapiens, UniProt P29274).
T2 construct: expressed in transfected cells; host or cells: CHO-K1
T2 sequence (P29274 whole entry): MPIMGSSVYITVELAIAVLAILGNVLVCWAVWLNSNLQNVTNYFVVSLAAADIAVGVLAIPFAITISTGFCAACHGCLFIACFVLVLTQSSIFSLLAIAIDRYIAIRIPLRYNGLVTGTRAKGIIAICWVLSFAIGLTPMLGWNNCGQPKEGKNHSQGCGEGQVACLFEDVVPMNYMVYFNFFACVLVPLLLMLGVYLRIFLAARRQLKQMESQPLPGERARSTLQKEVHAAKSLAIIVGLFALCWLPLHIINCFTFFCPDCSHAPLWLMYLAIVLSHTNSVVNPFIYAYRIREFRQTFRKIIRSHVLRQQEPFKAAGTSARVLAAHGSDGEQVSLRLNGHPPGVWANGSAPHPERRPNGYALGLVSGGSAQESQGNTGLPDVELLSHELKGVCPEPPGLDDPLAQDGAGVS
In words: Inhibition of adenosine A2a receptor cAMP signaling pathway in CHO-K1/A2aR cells (HTRF cAMP dynamic 2 kit). The following applies: Table 1, 20 nM ethylcarbazole.
Description: as §1, §2
CHO-K1/A2aR cells were cultured in DMEM/F12 medium containing 10% fetal bovine serum and 800 μg/mL Zeocin™. The cells were digested with the cell dissociation buffer during the experiment. The cells were resuspended in the HBSS buffer containing 20 mM HEPES and 0.1% bovine serum albumin and counted, and the cell density was adjusted to 10^6 cells/mL. In 384-well plates, each well was added with 5 μL of the cell suspension, and 2.5 µL of test compounds (4× concentration) formulated with the HBSS buffer containing 20 mM HEPES, 0.1% bovine serum albumin, 54 μM rolipram and 2.7 U/mL adenosine deaminase, and the plates were incubated at room temperature for 30 minutes. Each well was then added with 2.5 μL of ethylcarbazole (4× concentration) formulated with the balanced salt buffer containing 20 mM HEPES, 0.1% bovine serum albumin, 54 μM rolipram and 2.7 U/mL adenosine deaminase, and the plates were incubated at room temperature for 30 minutes. The final concentrations of the compounds were: 10000, 2000, 400, 80, 16, 3.2, 0.64, 0.128, 0.0256, 0.00512, and 0.001024 nM. The final concentration of ethylcarbazole was 20 nM. Intracellular cAMP concentration was determined with cAMP dynamic 2 kits. cAMP-d2 and Anti-cAMP—Eu-Cryptate were diluted respectively with the cAMP lysis buffer at a ratio of 1:4. Each well was added with 5 μL of the diluted cAMP-d2, followed by addition of 5 μL of the diluted Anti-cAMP—Eu-Cryptate, and the plates were incubated at room temperature in the dark for 1 hour. The HTRF signal values were read by the PHERAstar multi-function microplate reader.

For test [3], the target named is T3, adenosine A1 receptor (A1R) (Homo sapiens, UniProt P30542).
T3 construct: expressed in transfected cells; host or cells: CHO-K1
T3 sequence (P30542 1-326): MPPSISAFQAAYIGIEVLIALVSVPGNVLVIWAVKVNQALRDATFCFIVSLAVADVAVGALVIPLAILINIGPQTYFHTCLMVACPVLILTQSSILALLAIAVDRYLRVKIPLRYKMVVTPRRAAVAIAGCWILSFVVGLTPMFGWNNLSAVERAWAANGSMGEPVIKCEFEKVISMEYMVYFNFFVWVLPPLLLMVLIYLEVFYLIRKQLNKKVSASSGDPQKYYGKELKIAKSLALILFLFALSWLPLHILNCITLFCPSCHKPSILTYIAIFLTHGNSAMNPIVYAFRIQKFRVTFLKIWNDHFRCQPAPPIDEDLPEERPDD
In words: Inhibition of adenosine A1 receptor cAMP signaling pathway in CHO-K1/A1R cells (HTRF cAMP dynamic 2 kit). The following applies: Table 2; for IC50: CHO-K1/A1R cells, cAMP, 10 μM forskolin, 10 nM CPA; for IC50 ratio (A1R/A2aR): selectivity A1R over A2aR.
Description: as §1, §2
CHO-K1/A1R cells were cultured in DMEMIF12 medium containing 10% fetal bovine serum and 1 mg/mL G418. The cells were digested with the cell dissociation buffer during the experiment. The cells were then resuspended in the HBSS buffer containing 20 mM HEPES and 0.1% bovine serum albumin and counted, and the cell density was adjusted to 5×10^5 cells/mL. In 384-well plates, each well was added with 12.5 μL of the cell suspension, and 6.25 μL of the test compounds (4× concentration) formulated with the HBSS buffer containing 20 mM HEPES, 0.1% bovine serum albumin, 54 μM rolipram and 2.7 U/mL adenosine deaminase, and the plates were incubated at room temperature for 30 minutes. Each well was then added with 6.25 μL of forskolin and N6-cyclopentyladenosine (4× concentration) formulated with the HBSS buffer containing 20 mM HEPES, 0.1% bovine serum albumin, 54 μM rolipram and 2.7 U/mL adenosine deaminase, and the plates were incubated at room temperature for 30 minutes. The final concentrations of the compounds were: 100000, 10000, 1000, 100, 10, 1, 0.1 and 0 nM. The final concentration of forskolin was 10 μM. The final concentration of CPA was 10 nM. Intracellular cAMP concentration was determined with cAMP dynamic 2 kits. cAMP-d2 and Anti-cAMP—Eu-Cryptate were diluted respectively with the cAMP lysis buffer at a ratio of 1:4. Each well was added with 12.5 μL of the diluted cAMP-d2, followed by addition of 12.5 μL of the diluted Anti-cAMP—Eu-Cryptate, and the plates were incubated at room temperature in the dark for 1 hour. The HTRF signal values were read by the PHERAstar multi-function microplate reader.

Where only a bound is given, the exact number is not on record here.

By IC50 is commonly meant the concentration that inhibits the measured activity by half. Low readings indicate inhibition by little substance, high ones a need for much substance.

Take `Cc1ccc(-c2nc(N)nc3c(Nc4cccc(CO[C@H]5CCOC5)c4)cnn23)o1` [Example 25, (S)-4-(5-Methylfuran-2-yl)-N^8-(3-(((tetrahydrofuran-3-yl)oxy)methyl)phenyl)pyrazolo[1,5-a][1,3,5]triazine-2,8-diamine]: in test [1], half-maximal inhibition (IC50) required 8150 nM and the “IC50 ratio (A3R/A2aR)” value is listed as >10^3. Besides, in test [2], the IC50 was 1.64 nM. For the same molecule, in test [3], half-maximal inhibition (IC50) required 2040 nM and the “IC50 ratio (A1R/A2aR)” value is reported as >10^3.

For the molecule `Cc1ccc(-c2nc(N)nc3c(Nc4cccc(CN5CC6COCC6C5)n4)cnn23)o1` (centres unmarked) [Example 30, 4-(5-Methylfuran-2-yl)-N^8-(6-((tetrahydro-1H-furo[3,4-c]pyrrol-5(3H)-yl)methyl)pyridin-2-yl)pyrazolo[1,5-a][1,3,5]triazine-2,8-diamine], in test [1], it took 7600 nM to reach half-maximal inhibition (IC50) and the “IC50 ratio (A3R/A2aR)” value is reported as >10^3. In addition, in test [2], 2.87 nM corresponded to half-maximal inhibition (IC50). In test [3], 684 nM corresponded to half-maximal inhibition (IC50) and the “IC50 ratio (A1R/A2aR)” value is listed as 238^.

Turning to `Cc1ccc(-c2nc(N)nc3c(Nc4cccc(CN5CCOCC5)n4)cnn23)o1` [Example 27, 4-(5-Methylfuran-2-yl)-N^8-(6-(morpholinomethyl)pyridin-2-yl)pyrazolo[1,5-a][1,3,5]triazine-2,8-diamine], the IC50 in test [1] was 977 nM; in test [2] it was 1.9 nM; in test [3], 286 nM. In addition, in test [1], the “IC50 ratio (A3R/A2aR)” value is listed as 514^. The “IC50 ratio (A1R/A2aR)” value in test [3] is listed as 150^.

Turning to `COCCOCc1cccc(Cc2cnn3c(-c4ccc(C)o4)nc(N)nc23)n1` [Example 3, 8-((6-((2-Methoxyethoxy)methyl)pyridin-2-yl)methyl)-4-(5-methylfuran-2-yl)pyrazolo[1,5-a][1,3,5]triazin-2-amine], in test [1], half-maximal inhibition (IC50) was put at 4120 nM and the “IC50 ratio (A3R/A2aR)” value is reported as >10^3. Moreover, in test [2], the 50% inhibitory concentration (IC50) came to 0.45 nM. Further, in test [3], the IC50 was determined as 434 nM and the “IC50 ratio (A1R/A2aR)” value is on record as 964^.

On to `Cc1ccc(-c2nc(N)nc3c(Nc4cccc(CO[C@H]5CCOC5)c4F)cnn23)o1` [Example 26, (S)—N^8-(2-fluoro-3-(((tetrahydrofuran-3-yl)oxy)methyl)phenyl)-4-(5-methylfuran-2-yl)pyrazolo[1,5-a][1,3,5]triazine-2,8-diamine], for which, in test [1], half-maximal inhibition (IC50) was put at 5300 nM and the “IC50 ratio (A3R/A2aR)” value was >10^3. This molecule came in with a concentration for half-maximal inhibition (IC50) in test [2] of 1.66 nM. In addition, in test [3], the IC50 was 1210 nM and the “IC50 ratio (A1R/A2aR)” value was 731^.

Consider `Cc1ccc(-c2nc(N)nc3c(Cc4cccc(COC5CCCC5)n4)cnn23)o1` [Example 22, 8-((6-((Cyclopentyloxy)methyl)pyridin-2-yl)methyl)-4-(5-methylfuran-2-yl)pyrazolo[1,5-a][1,3,5]triazin-2-amine], for which the figures for the IC50 in test [1], in test [2] and in test [3] were 1050 nM, 0.57 nM and 303 nM, respectively. Besides, in test [1], the “IC50 ratio (A3R/A2aR)” value is >10^3. For the same molecule, the “IC50 ratio (A1R/A2aR)” value in test [3] was 532^.

With `Cc1ccc(-c2nc(N)nc3c(Cc4cccc(CO[C@H]5CCN(C)C5)n4)cnn23)o1` [Example 15, (S)-4-(5-Methylfuran-2-yl)-8-((6-(((1-methylpyrrolidin-3-yl)oxy)methyl)pyridin-2-yl)methyl) pyrazolo[1,5-a][1,3,5]triazin-2-amine], in test [1], the IC50 came out at 8970 nM and the “IC50 ratio (A3R/A2aR)” value was >10^3. Also, the 50% inhibitory concentration (IC50) in test [2] was 1.83 nM. In addition, in test [3], half-maximal inhibition (IC50) was put at 165 nM and the “IC50 ratio (A1R/A2aR)” value is 90^.

Regarding `Cc1ccc(-c2nc(N)nc3c(Cc4cccc(CN5CCOCC5)n4)cnn23)o1` [Example 5, 4-(5-Methylfuran-2-yl)-8-((6-(morpholinomethyl)pyridin-2-yl)methyl)pyrazolo[1,5-a][1,3,5]triazin-2-amine], in test [1], 2280 nM corresponded to half-maximal inhibition (IC50) and the “IC50 ratio (A3R/A2aR)” value is reported as >10^3. The IC50 in test [2] worked out at 0.55 nM. In test [3], it took 835 nM to reach half-maximal inhibition (IC50) and the “IC50 ratio (A1R/A2aR)” value is on record as >10^3.

For `Cc1ccc(-c2nc(N)nc3c(Cc4cccc(CO[C@@H]5CCOC5)n4)cnn23)o1` [Example 6, (R)-4-(5-Methylfuran-2-yl)-8-((6-(((tetrahydrofuran-3-yl)oxy)methyl)pyridin-2-yl)methyl)pyrazolo[1,5-a][1,3,5]triazin-2-amine], in test [1], the IC50 was found to be 4810 nM and the “IC50 ratio (A3R/A2aR)” value is listed as >10^3. The same molecule yielded an IC50 in test [2] of 0.4 nM. In test [3], the IC50 is 316 nM and the “IC50 ratio (A1R/A2aR)” value is 790^.

For `Cc1ccc(-c2nc(N)nc3c(Cc4cccc(CN5CCN(C)CC5)n4)cnn23)o1` [Example 8, 4-(5-Methylfuran-2-yl)-8-((6-((4-methylpiperazin-1-yl)methyl)pyridin-2-yl)methyl)pyrazolo[1,5-a][1,3,5]triazin-2-amine], in test [1], the 50% inhibitory concentration (IC50) was determined as 6490 nM and the “IC50 ratio (A3R/A2aR)” value was >10^3. Moreover, in test [2], the IC50 stood at 1.32 nM. Besides, in test [3], the 50% inhibitory concentration (IC50) was 943 nM and the “IC50 ratio (A1R/A2aR)” value is 714^.

Values taken from patent US20210032253A1, “PYRAZOLO[1,5-A][1,3,5]TRIAZINE-2-AMINE DERIVATIVE, PREPARATION METHOD THEREFOR AND MEDICAL USE THEREOF” (JIANGSU HENGRUI MEDICINE CO., LTD., priority 2018, published 2021).
